We go through two compounds from patent US20160220582A1, “COMBINATION OF LUPEOL ACETATE AND CURCUMIN USED FOR THE TREATMENT OR PREVENTION OF ACTIVATED OSTEOCLAST PRECURSOR ASSOCIATED DISORDERS” (priority 2015, published 2016).

For data set [1] the following is noted: clinical application; cited from earlier work.
Data set [2] concerns collagen-induced arthritis (CIA) mice. Put plainly: 18F-FDG PET of joints in CIA mice. Type of data set: in vivo, DBA/1J mice. From the text:
Apart from blood analysis, current clinical diagnosis will also use X-ray as an evaluation basis. Since X-ray image can only diagnose rheumatoid arthritis when the bone has been damaged severely at late stage, it could not be an effective evaluation tool. ^18F-FDG can be used as a tracer to observe and evaluate its accumulation during rheumatoid arthritis.
Repeated ^18F-FDG PET in vivo determination of disease severity in knee joints and paws on 20, 25, 32, 39 and 43 days after arthritis induction. Mice were anesthetized using 1-3% isoflurane and were intravenous injected with 0.5 mCi/100 μl (18.5 MBq) of ^18F-FDG 40 min before images acquisition. The emission scans were performed using an animal micro/PET scan (Tri-Modality FLEX Triumph™ Pre-Clinical Imaging System). All images were acquired for 40 min and reconstructed by software supplied by the manufacturer. The ROIs were selected, and the accumulation of ^18F-FDG of each ROI was further analyzed by Amide software.

In the next data set the test system is arthritis. The following applies: mice; cited from earlier work.
Data set [3] relates to collagen-induced arthritis (CIA) mice. The experiment in a line: Histopathology of joints (H & E stain) in CIA mice. Type of data set: in vivo, DBA/1J mice. The following applies: day 43. From the text: To investigate the therapeutic efficacy of LA combined with curcumin on the histological damage in CIA mice, the mice were scarified on day 43 after arthritis induction. The joints of four limb of each mouse were excised and fixed with paraformaldehyde then embedded by paraffin and sectioned. Slides were stained with haematoxylin and eosin (H & E), and were observed under microscope.

Data set [4] shares this test system. The experiment in a line: Micro-CT bone density of femur in CIA mice. Type of data set: in vivo, DBA/1J mice. The conditions noted are these: day 32, 39 and 43. The procedure: Micro-CT images were acquired from the Tri-Modality FLEX Triumph™ Pre-Clinical Imaging System (Gamma MedicaIdeas; Northridge, Calif.). The ROI was analyzed visually in three different slices: transverse, coronal, and sagittal. Individual ROI was used to create 3D representations of the bones of interest. For each specific bone ROI, the total number of pixels and mean pixel intensity across all slices were used to measure bone volume and density.

Data set [5] is described as follows: Body weight tracking in CIA mice. Type of data set: in vivo. The procedure: Eight-week-old DBA/1J mice (purchased from Jackson lab, ME, USA and housed in the Animal center of National Yang Ming University under pathogen-free conditions according to the Institutional Animal Care and Committee guidelines) were used. 100 μl of arthritis-inducing adjuvant (prepared by mixing Complete Freund's Adjuvant (5 mg/ml heat-killed M. tuberculosis in incomplete Freund's Adjuvant) (Chondrex, WA, USA) with equal volume of bovine type II collagen (2 mg/ml solution in 0.05 M acetic acid) (Chondrex, WA, USA)) is injected into the dermis of tail (intra-dermal, i.d.) using a 30 G syringe; and a 50 μl second dose of same ingredients is injected in the same way at an interval of 21 days. The symptoms are produced at about six days after the second dose injection, with an induction rate of 100%. The CIA mice were established and treated with LA 25 mg/kg alone, LA 50 mg/kg alone, Cur 50 mg/kg alone and LA 25 mg/kg+Cur 50 mg/kg after second immunization once per day. Using animals treated with deionized distilled water (ddH2O) containing 0.1% dimethyl sulfoxide (DMSO, Sigma, USA) as the normal mice group. Signs of arthritis were monitored until Day 43.

For data set [6], the system named is collagen-induced arthritis (CIA) mice. Put plainly: Ex vivo Western blotting of leg proteins of CIA mice. Type of data set: in vivo, DBA/1J mice. The conditions noted are these: day 32. The procedure:
The mice were sacrificed by cervical dislocation on the 32nd day of the animal experiment. The whole leg of mouse was removed, and the leg tissue was ground by adding an appropriate amount of lysis buffer (tissue protein extraction reagent, T-PER, Pierce Protein Biology Products, IL, USA), centrifuged at 15,000 rpm for 20 minutes, and the supernatant is taken as the sample for each group.
Mice were sacrificed at the peak of arthritis (on day 32), the protein extraction was isolated from legs of each group.

The subject of another data set is NF-κB. Put plainly: Ex vivo electrophoretic mobility shift assay (EMSA). Type of data set: in vivo, DBA/1J mice. The method, then: The LightShift Chemiluminescent EMSA kit (Pierce, Rockford, Ill., USA) was used in the analysis for NF-κB/DNA binding activity. Nuclear extracts were incubated with the biotin labeled DNA probes at room temperature for 20 minutes. The separated DNA/protein complexes from the free oligonucleotide on 10% polyacrylamide gel were transferred to a nylon membrane. The nylon membrane was immersed in ECL (Pierce, Rockford, Ill., USA) and reacted to emit cold light (luminescence), and then exposed to the film for the observation of NF-κB activity. Using IMAGE J software (National Institutes of Health), the obtained images were quantified to blackening degree; the blackening degree of the protein to be observed is divided by the value obtained in the control group to compare the differences of each group in the expression level of nuclear proteins.

For the next data set, the system named is rheumatoid arthritis. The following applies: mice; high doses (100 mg/kg, 12 days) necessary; US 20120177754; cited from earlier work.
For the next data set, the system named is RAW 264.7 cells. Put plainly: MTT cell viability assay. The following applies: RAW264.7, 24 h; LA 10-80 μM, Cur 2.5-10 μM, 10 μM Cur+10-80 μM LA. The method, then:
RAW 264.7 cells (a mouse macrophage cell line) were treated with different concentrations of lupeol acetate (10, 20, 40, 80 μM), curcumin (2.5, 5, 7.5, 10 μM) and combination (10 μM Cur+10 μM LA, 10 μM Cur+20 μM LA, 10 μM Cur+40 μM LA, 10 μM Cur+80 μM LA) for 24 h.
5×10^4 RAW264.7 cells/well were seeded in 96-well culture dishes, and treated with directed concentration of lupeol acetate (LA), curcumin (Cur) and combination for 24 hours after the 24-hr attachment. After removing the culture medium, 100 μl of 0.5 mg/ml MTT solution was added, and the cells were incubated at 37° C. for 4 hours. The mitochondrial enzyme (succinate dehydrogenase, SDH) in living cells will react with tetrazolium bromide in the MTT solution and form formazan blue-purple crystals. The MTT solution was removed and 200 μl DMSO was added to dissolve the blue-purple crystal, and then the O.D. (optical density) value was read under wavelength of 570 nm with an ELISA reader (TECAN Sunrise, USA). The relative cell viability is calculated by comparing the absorbance value of drug treated group with that of the control group (setting the value of control group as 100%).

The test system of data set [7] is inflammatory condition induced by carrageenan. The following applies: mice; Lucetti et al. 2010; cited from earlier work.

For the compound `COc1cc(/C=C/C(=O)CC(=O)/C=C/c2ccc(O)c(OC)c2)ccc1O` [Cur, curcumin], the bioavailability entry in data set [1] is “poor bioavailability”. In addition, the “18F-FDG accumulation in knee and tarsal joint / leg swelling” value in data set [2] (50 mg/kg alone) was “still have leg swelling on one side”. Also, the “occurrence of inflammation and progression of arthritis” value in the data set on arthritis is reported as “inhibit”. In addition, the “histopathology of joints: immune cell infiltration and cartilage destruction” value in data set [3] (50 mg/kg) is “moderate immune cell infiltration and cartilage destruction”. For the same compound, the “bone density of femur vs CIA mice” value in [4] was “significantly higher”. Moreover, the “tolerability / general toxicity” value in data set [5] (mouse, in vivo) was “well-tolerated”.

Regarding lupeol acetate [LA], the arthritis-related proteins entry in data set [6] (LA25 (25 mg/kg)) and in data set [6] (LA50 (50 mg/kg)) was “improvement” in each case. For the same compound, the “18F-FDG accumulation in knee and tarsal joint / leg swelling” value in [2] (25 mg/kg alone) is on record as “still have leg swelling on one side”. Also, the “activation of NF-κB” value with NF-κB (LA25 (25 mg/kg)) and in the data set on NF-κB (LA50 (50 mg/kg)) was “significantly suppressed” each time. The “inhibiting inflammation and treatment of rheumatoid arthritis” value in the data set with rheumatoid arthritis is recorded as “significant therapeutic effect”. For the same compound, the “cytotoxic effects, cell viability (MTT)” value in the data set with RAW 264.7 cells is “no cytotoxic effects”. The “inflammatory condition induced by carrageenan” value in data set [7] is listed as “effectively mitigate”. For the same compound, the “histopathology of joints: immune cell infiltration and cartilage destruction” value in [3] (25 mg/kg) is “moderate immune cell infiltration and cartilage destruction”; in data set [3] (50 mg/kg) it was “no inflammation and cartilage destruction”. In addition, the “bone density of femur vs CIA mice” value in data set [4] was “significantly higher”. For the same compound, the “tolerability / general toxicity” value in data set [5] (CIA mice, throughout the experimental period) is reported as “well-tolerated”.
